Test results taken from article PMC9026428, “New Peptide Based Fluconazole Conjugates with Expanded Molecular Targets” (Pharmaceutics, 2022).
Converted amounts (≈) assume the structure as drawn. Where two headings read alike, the source gives them in different places. Non-standard residues stand in square brackets, D forms with d. Residues, ends and D or L forms follow the SMILES beside them. *: point of attachment. X1 = O=C(CCCC(=O)*)OC(Cn1cncn1)(Cn1cncn1)c1ccc(F)cc1F; Nle = CCCC[C@H](N)C(=O)O

Columns and labels:
Candida krusei DSM 11226 = test: microbe, parasite or virus in culture; details: C. krusei DSM 11226, 37 °C; for MIC50 / MIC90: RPMI 1640/MOPS pH 7.0, 24 h, triplicate; for MIC50: at least 50% growth inhibition vs growth control; for MIC90: lowest concentration with no visible growth; for MFC: aliquots plated on YPD agar, 24 h, lowest concentration with no colony growth
Protocol: (§1) The assessment of antifungal potential of synthesized agents was carried out using four reference strains (C. albicans ATCC 10231, C. albicans SC5314, C. glabrata DSM […] and C. krusei DSM […]) and six clinical isolates of fluconazole-resistant C. albicans that were provided by the Hospital of Medical University of Gdansk, Poland. Moreover, four C. albicans isolates, assigned as B3, B4, Gu4 and Gu5, were used for investigation whether the synthesized fluconazole derivatives were effectively removed from the yeast cells by the drug efflux transporters, as in the case of fluconazole. These strains were kindly provided by Prof. Joachim Morschhäuser from University of Würzburg (Würzburg, Germany). Strains Gu4 and B3 were fluconazole-sensitive isolates obtained from early infection episodes, while Gu5 and B4 were the corresponding fluconazole-resistant isolates obtained from later episodes in the same patients treated with fluconazole. The lack of susceptibility of the Gu5 strain to fluconazole was a consequence of overexpression of CDR1/2 genes encoding ABC transporters, whereas the resistance of B4 strain was caused by overexpression of the MDR1 gene encoding a membrane transport protein of the major facilitator superfamily (MFS). All of these Candida spp. strains were maintained on YPD agar plates (1% (w/v) yeast extract, 2% (w/v) peptone, 2% (w/v) glucose, 2% (w/v) agar) at 30 °C for 16–24 h. For all of the assays aimed at assessing the antifungal potential of the synthesized agents, the yeasts were cultivated at 37 °C in RPMI 1640 medium (with L-glutamine, without sodium bicarbonate, Sigma-Aldrich, Darmstadt, Germany)) buffered to a pH of 7.0 with 0.165 M morpholinepropanesulfonic acid (MOPS) buffer (Sigma-Aldrich). In this study, we used the human foreskin fibroblast cell line Hs27 (ATCC CRL 1634TM) and the human endothelial cell line HUVEC (C2519A), purchased from Lonza Group AG, (Basel, Switzerland). The Hs27 cells were maintained in cell media consisting of Dulbecco’s modified Eagles medium (DMEM), (Corning, Arizona, USA) with 10% fetal bovine serum (FBS), (Corning, Port Elizabeth, South Africa), 1% penicillin/streptomycin (Sigma-Aldrich Inc., Darmstadt, Germany), and 1% L-glutamine (Corning, Arizona, USA). The human endothelial cell line was maintained in cell media consisting of Endothelial Cell Growth Medium-2 Single Quots Kit (Lonza, USA). Both cell lines were cultured in an incubator at 37 °C and 5% CO2.
(§2) Antifungal activity of the tested compounds against yeast cells was determined in 96-well plates as described in the CLSI document M27-A3 [39], with minor modifications (CLSI, 2008). […] The plates were incubated for 24 h at 37 °C. Each test was performed in triplicate. The final concentration of DMSO was ensured to be around 1% in all experiments.
(§3) For determination of minimum fungicidal concentrations (MFC), small aliquots of suspensions (around 10 μL) from each well were transferred using the pipette to YPD agar plates without inhibitors and incubated for 24 h at 37 °C.

Candida albicans 604 = test: microbe, parasite or virus in culture; details: 37 °C; for MIC50 / MIC90: C. albicans 604 (fluconazole-resistant clinical isolate), RPMI 1640/MOPS pH 7.0, 24 h, triplicate; for MIC50: at least 50% growth inhibition vs growth control; for MIC90: lowest concentration with no visible growth
Protocol: as §1, §2, §3

[1] = tested on: Candida albicans ATCC 10231; test: microbe, parasite or virus in culture; details: C. albicans ATCC 10231, 37 °C; for MIC50 / MIC90: RPMI 1640/MOPS pH 7.0, 24 h, triplicate; for MIC50: at least 50% growth inhibition vs growth control; for MIC90: lowest concentration with no visible growth
Protocol: as §1, §2, §3

Candida albicans B4 = test: microbe, parasite or virus in culture; details: 37 °C; for MIC50 / MIC90: C. albicans B4 (fluconazole-resistant, MDR1 overexpression), RPMI 1640/MOPS pH 7.0, 24 h, triplicate; for MIC50: at least 50% growth inhibition vs growth control; for MIC90: lowest concentration with no visible growth
Protocol: as §1, §2, §3

Candida albicans B3 = test: microbe, parasite or virus in culture; details: 37 °C; for MIC50 / MIC90: C. albicans B3 (fluconazole-sensitive isolate), RPMI 1640/MOPS pH 7.0, 24 h, triplicate; for MIC50: at least 50% growth inhibition vs growth control; for MIC90: lowest concentration with no visible growth
Protocol: as §1, §2, §3

[2] = tested on: Candida spp. strains tested; test: Antifungal activity against the whole panel of strains tested; assay type: cell-based; details: panel of Table 2, 8–250 µM
Protocol: Antifungal activity of the tested compounds against yeast cells was determined in 96-well plates as described in the CLSI document M27-A3 [39], with minor modifications (CLSI, 2008). Suspensions of the microorganisms were prepared by taking one loop of pure culture into sterile water and adjusting optical density to 0.1 at 660 nm wavelength and further 50-fold dilution in RPMI 1640 medium, resulting in cell concentration of approximately 2 × 10^4 CFU/mL [21]. Then, 100 μL of cells were added to the wells of a 96-well microtiter plate that contained 16–500 μM tested compounds and 16–500 μM of FLC or 0.2–62 μM AmB. The plates were incubated for 24 h at 37 °C. Each test was performed in triplicate. […] The MIC90 was defined as the lowest concentration of drug showing no visible growth; MIC50 was defined as the concentration that yielded at least 50% growth inhibition when compared with the growth control well.

[3] = tested on: Hs27 cells (human foreskin fibroblast cell line); test: MTT cytotoxicity assay
Protocol: as §1
(§4) Hs27 and HUVEC mammalian cell lines were cultured as mentioned above. Once cell lines were about 80% confluent, cells were counted by a hemacytometer (Hausser Scientific, Horsham, PA, USA) and plated in 96-well microtiter plates at concentrations of 4500 cells per well for Hs27 and 2000 cells per well for HUVEC. Cells were allowed to attach overnight. […] The final concentration of DMSO was ensured to be around 1% in all experiments. Cells were incubated with studied compounds for 72 h at 37 °C and 5% CO2. After incubation, 20 µL of MTT solution in PBS (4 mg/mL) was added to all wells and incubated further for 3 h at 37 °C. Formed formazan crystals were dissolved in 150 µL DMSO, and absorbance was measured using an Asys UVM340 multi-well plate reader at λ = 540 nm. Cytotoxicity was determined compared to drug-free control. All experiments were performed in biological triplicates.

[4] = tested on: HUVEC cells (human umbilical venous endothelial primary cells); test: MTT cytotoxicity assay
Protocol: as §1, §4

MTT cytotoxicity assay [5] = details: human
Protocol: as §1, §4

MTT cytotoxicity assay [6] = details: human; remark: listed apart in the source
Protocol: as §1, §4

[7] = Hs27 cells, MTT, 72 h, 37 °C, 100–1.5 μM, biological triplicates
[8] = HUVEC cells, MTT, 72 h, 37 °C, 100–1.5 μM, biological triplicates

Compound | MIC50 (Candida krusei DSM 11226) [µM] | MIC90 (Candida krusei DSM 11226) [µM] | MIC50 (Candida albicans 604) [µM] | MIC90 (Candida albicans 604) [µM] | MIC50 [1] [µM] | MIC90 [1] [µM] | MIC50 (Candida albicans B4) [µM] | MIC90 (Candida albicans B4) [µM] | MIC50 (Candida albicans B3) [µM] | MIC90 (Candida albicans B3) [µM] | antifungal activity against the strains tested, in words [2] | MFC (Candida krusei DSM 11226) [µM] | In vitro cytotoxicity IC90 ± SEM [3, 7] [µM] | In vitro cytotoxicity IC90 ± SEM [4, 8] [µM] | IC50 at 72 h (MTT cytotoxicity assay [5]) [µM] | IC50 at 72 h (MTT cytotoxicity assay [6]) [µM] | also measured
O=C(O)CCCC(=O)OC(Cn1cncn1)(Cn1cncn1)c1ccc(F)cc1F [FLCpOH] | >250 | >250 | >250 | >250 | >250 | >250 | >250 | >250 | >250 | >250 | did not exert any antifungal activity |  |  |  |  |  | IC50 [3]: > 100 µM; In vitro cytotoxicity IC90 ± SEM [3]: >100 µM; IC50 [4]: > 100 µM; In vitro cytotoxicity IC90 ± SEM [4]: >100 µM
CC[C@H](C)[C@H](NC(=O)[C@H](CCCCN)NC(=O)[C@H](CCCCN)NC(=O)[C@H](C)NC(=O)[C@H](CC(C)C)NC(=O)[C@H](C)NC(=O)[C@H](C)NC(=O)[C@H](CC(C)C)NC(=O)[C@H](C)NC(=O)[C@H](CCCCN)NC(=O)[C@H](CC(C)C)NC(=O)[C@H](CC(N)=O)NC(=O)[C@@H](NC(=O)[C@H](CCCCN)NC(=O)CNC(=O)[C@H](CC(C)C)NC(=O)[C@H](CC(C)C)NC(=O)[C@H](Cc1ccc(O)cc1)NC(=O)CNC(=O)[C@H](C)NC(=O)CCCC(=O)OC(Cn1cncn1)(Cn1cncn1)c1ccc(F)cc1F)[C@@H](C)CC)C(=O)N[C@@H](CC(C)C)C(N)=O [FLCpOH-TP10-NH2] | 62 (≈ 160 µg/mL) | 125 (≈ 323 µg/mL) | 45 (≈ 116 µg/mL) | 62 (≈ 160 µg/mL) | 15 (≈ 38.8 µg/mL) | 31 (≈ 80.1 µg/mL) | 62 (≈ 160 µg/mL) | 125 (≈ 323 µg/mL) | 31 (≈ 80.1 µg/mL) | 62 (≈ 160 µg/mL) |  | 250 (≈ 646 µg/mL) | 28.81 ± 0.87 | 34.30 ± 1.00 |  |  | MFC (Candida albicans 604; C. albicans 604, aliquots plated on YPD agar, 24 h, lowest concentration with no colony growth): 250 µM (≈ 646 µg/mL); MFC ([1]; aliquots plated on YPD agar, 24 h, lowest concentration with no colony growth): 62 µM (≈ 160 µg/mL); MFC (Candida albicans B4; C. albicans B4, aliquots plated on YPD agar, 24 h, lowest concentration with no colony growth): 125 µM (≈ 323 µg/mL); MFC (Candida albicans B3; C. albicans B3, aliquots plated on YPD agar, 24 h, lowest concentration with no colony growth): 62 µM (≈ 160 µg/mL)
CCCC[C@H](NC(=O)CCCC(=O)OC(Cn1cncn1)(Cn1cncn1)c1ccc(F)cc1F)C(=O)N[C@@H](Cc1ccccc1)C(=O)N[C@@H](CCCCN)C(=O)N[C@@H](CS)C(=O)N[C@@H](CCCNC(=N)N)C(=O)N[C@@H](CCCNC(=N)N)C(=O)N[C@@H](Cc1c[nH]c2ccccc12)C(=O)N[C@@H](CCC(N)=O)C(=O)N[C@@H](Cc1c[nH]c2ccccc12)C(=O)N[C@@H](CCCNC(=N)N)C(=O)N[C@@H](CCCC)C(=O)N[C@@H](CCCCN)C(=O)N[C@@H](CCCCN)C(=O)N[C@@H](CC(C)C)C(=O)NCC(N)=O [FLCpOH-LFacinB[Nle^1,11]-NH2] (X1-[Nle]FKCRRWQWR[Nle]KKLG-NH2) | 31 (≈ 75 µg/mL) | 62 (≈ 150 µg/mL) | 45 (≈ 109 µg/mL) | 90 (≈ 218 µg/mL) | 45 (≈ 109 µg/mL) | 62 (≈ 150 µg/mL) | 250 (≈ 605 µg/mL) | >250 | 45 (≈ 109 µg/mL) | 62 (≈ 150 µg/mL) | moderately or poorly active |  | >100 | >100 | > 100 | 75.6 ± 1.73 | 
CSCC[C@H](NC(=O)[C@H](CCCNC(=N)N)NC(=O)[C@H](Cc1c[nH]c2ccccc12)NC(=O)[C@H](CCC(N)=O)NC(=O)[C@H](Cc1c[nH]c2ccccc12)NC(=O)[C@H](CCCNC(=N)N)NC(=O)[C@H](CCCNC(=N)N)NC(=O)[C@H](CS)NC(=O)[C@H](CCCCN)NC(=O)[C@H](Cc1ccccc1)NC(=O)CCCC(=O)OC(Cn1cncn1)(Cn1cncn1)c1ccc(F)cc1F)C(N)=O [FLCpOH-LFacinB(2-11)-NH2] (X1-FKCRRWQWRM-NH2) | 31 (≈ 58.8 µg/mL) | 62 (≈ 118 µg/mL) | 190 (≈ 361 µg/mL) | 250 (≈ 475 µg/mL) | 125 (≈ 237 µg/mL) | 250 (≈ 475 µg/mL) | 190 (≈ 361 µg/mL) | 250 (≈ 475 µg/mL) | 125 (≈ 237 µg/mL) | 250 (≈ 475 µg/mL) | moderately or poorly active | 125 (≈ 237 µg/mL) | >100 | >100 | > 100 | > 100 | 
